Molecular target: Dipeptidyl peptidase 4 (Bos taurus, UniProt P81425)
Sequence (P81425 whole entry): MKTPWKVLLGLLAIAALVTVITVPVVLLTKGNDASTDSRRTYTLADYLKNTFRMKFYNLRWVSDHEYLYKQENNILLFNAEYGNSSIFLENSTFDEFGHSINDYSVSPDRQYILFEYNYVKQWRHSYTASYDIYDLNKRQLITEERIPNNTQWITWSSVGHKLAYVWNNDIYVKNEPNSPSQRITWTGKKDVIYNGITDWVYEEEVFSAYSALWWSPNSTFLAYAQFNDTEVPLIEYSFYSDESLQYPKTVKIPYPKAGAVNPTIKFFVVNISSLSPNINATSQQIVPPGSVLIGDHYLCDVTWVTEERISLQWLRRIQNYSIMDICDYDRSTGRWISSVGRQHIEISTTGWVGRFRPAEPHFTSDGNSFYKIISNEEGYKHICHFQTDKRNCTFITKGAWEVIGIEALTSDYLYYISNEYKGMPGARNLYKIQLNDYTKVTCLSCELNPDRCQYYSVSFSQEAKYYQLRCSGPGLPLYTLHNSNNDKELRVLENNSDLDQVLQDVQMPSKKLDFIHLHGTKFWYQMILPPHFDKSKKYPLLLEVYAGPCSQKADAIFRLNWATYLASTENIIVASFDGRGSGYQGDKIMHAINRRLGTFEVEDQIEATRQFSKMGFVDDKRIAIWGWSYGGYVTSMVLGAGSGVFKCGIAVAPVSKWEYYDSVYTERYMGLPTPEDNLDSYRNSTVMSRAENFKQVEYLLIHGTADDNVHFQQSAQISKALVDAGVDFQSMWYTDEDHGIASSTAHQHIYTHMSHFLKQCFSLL
Description: Inhibition of bovine DPP4 by HTS assay

## CC(C)=CCn1c(N2CCNCC2)nc2c1c(=O)[nH]c(=O)n2C
  IC50: 676 nM

From ChEMBL document CHEMBL2146411, “Discovery of 3H-imidazo[4,5-c]quinolin-4(5H)-ones as potent and selective dipeptidyl peptidase IV (DPP-4) inhibitors” (Bioorg Med Chem, 2012)
